Laboratory results reported in US9340477B2, “Process for production of hydroxystilbene derivative having physiological activity” (UHA MIKAKUTO CO., LTD., priority 2010, dated 2016).

Columns and labels:
[1] = system: HL-60 cells (human promyelocytic leokemia cells); test: Cancer cell growth suppressing action using HL-60 cells (Cell counting kit-8); type: cell-based; conditions: 24 hours, 6.3-100 μM, viable cells vs DMSO only, read-out: Cell growth suppressing ability to HL-60 (IC50)
Procedure: Next, in order to see the effect of the hydroxystilbene derivative to cancer cells, cancer cell growth suppressing action using HL-60 cells (human promyelocytic leokemia cells) was tested.
For culturing the HL-60 cells, an enriched culture medium “RPMI-1640” (manufactured by Sigma-Aldrich Japan) containing 4 mM glutamine (L-Glutamine, manufactured by Sigma-Aldrich Japan) and 10% FBS (Foetal Bovine Serum, manufactured by Biological Industries) was used. For the test, a 96-well plate for cell culture (manufactured by Corning Japan) was used, and the HL-60 cells whose number of cells was adjusted to be 5×10^5 cells/mL were seeded at 100 μL per well
As samples, p-coumaric acid, ferulic acid, caffeic acid, sinapic acid, resveratrol, pterostilbene, and the UHA1027, the UHA1028, the UHA1123, the UHA1124, the UHA1125, the UHA7032, the UHA7033, and the UHA9021 which were already purified were used. With respect to the preparation of the samples, each compound was dissolved in DMSO (Wako Pure Chemical Industries, Ltd.), and then adjusted in such a manner that the final concentration in the HL-60 cell culture solutions was 6.3 μM, 12.5 μM, 25 μM, 50 μM, and 100 μM. Then, the test was started.
The number of viable cells was quantified by an MTT method using a “Cell counting kit-8” (manufactured by DOJINDO LABORATORIES). 24 hours after starting the test, 10 μL of a Cell counting kit-8 solution was added to each well, and then sufficiently stirred. After a shading reaction for 1 hour, the absorbancy was measured at a measurement wavelength of 450 nm using a plate leader (Biorad Laboratories, Inc., “BIO-RAD Model 680”). Then, the cell viability was calculated based on the obtained data. The cell viability is a value obtained by setting the number of viable cells of the culture liquid to which only DMSO as a solvent was added to 100%, and then calculating the number of viable cells under the concentration of each compound as a relative value. From the relationship between the concentration of each compound and the cell viability, the concentration IC50 (50% inhibition concentration) at which the cell growth is suppressed by 50% was calculated.

[2] = system: SCC-4 cells (human oral cancer cells, ATCC); test: Cancer cell growth suppressing action using SCC-4 oral cancer cells (Cell counting kit-8); type: cell-based; conditions: 6.3-100 μM, Cell counting kit-8, DMSO negative control, read-out: Cell growth suppressing ability (IC50)
Procedure: Next, in order to see the effect of the hydroxystilbene derivative to oral cancer cells, cancer cell growth suppressing action using SCC-4 cells (human oral cancer cells, ATCC) was tested.
For culturing the SCC-4 cells, a DMEM/F-12 (1:1) culture medium (manufactured by GIBCO) containing 400 ng/mL hydrocortisone (manufactured by Sigma-Aldrich Japan), 1% antibiotic-antimycotic (manufactured by GIBCO), and 10% FBS (Foetal Bovine Serum, manufactured by ATCC) was used. For the test, a collagen I coat 96 well plate for cell culture (manufactured by Japan BD) was used, and SCC-4 cells whose number of cells was adjusted to be 5×10^5 cells/mL were seeded at 100 μL per well. The cells were cultured under the conditions of 37° C. and 5% CO2 for 24 hours, and were used for the test in a confluent state of 80% or higher.
As samples, p-coumaric acid, ferulic acid, caffeic acid, sinapic acid, resveratrol, pterostilbene, piceatannol, and the UHA1027, the UHA1028, the UHA1123, the UHA1124, the UHA1125, the UHA7032, the UHA7033, the UHA7034, and the UHA9021 which were already purified were used. With respect to the preparation of the samples, each compound was dissolved in DMSO, and then prepared in such a manner as to achieve 0.63 mM, 1.25 mM, 2.5 mM, 5 mM, and 10 mM. The samples were added in such a manner that the final concentration in the SCC-4 cell culture solution was 6.3 μM, 12.5 μM, 25 μM, 50 μM, and 100 μM. Then, the test was started. A sample to which an equivalent amount of only DMSO as the solvent was added was used as a negative control.
The number of viable cells was quantified by an MTT method using a “Cell counting kit-8” in the same manner as in Example 15, and the concentration IC50 at which the cell growth is suppressed by 50% was calculated.

[3] = molecular target: rat intestine derived lipase; test: Lipase inhibitory action test (Lipase kit S); type: biochemical; conditions: rat intestine acetone powder lipase, 30° C., 10 minutes reaction
Procedure: In order to see the inhibitory action to lipase of the hydroxystilbene derivative, an inhibitory action test using rat intestine derived lipase was performed.
As lipase, one obtained by suspending 100 mg of rat derived intestine acetone powder (manufactured by Sigma-Aldrich Japan) in 1 mL of 100 mM citric acid buffer (pH 6.0), stirred at 4° C. for 1 hour, centrifuging the same (at 15000 rpm for 45 minutes at 4° C.), and then diluting the supernatant by 1500 times was used as a lipase solution.
As samples, p-coumaric acid, caffeic acid, sinapic acid, resveratrol, and the UHA1027, the UHA1028, and the UHA9021 which were already purified were used. With respect to the preparation of the samples, each compound was dissolved in DMSO, and then prepared in such a manner as to achieve 0.1 mM, 0.5 mM, 1 mM, 2 mM, and 4 mM.
For measuring the activity, a “Lipase kit S” (Trade name, manufactured by Dainippon Pharmaceutical Co., Ltd.) was used. First, in accordance with a preparation method described in the catalog of the Lipase kit S, a color developing liquid was prepared. Reaction liquids in which 70 μl of the color developing liquid, 2 μl of an esterase inhibitor, 10 μl of the lipase solution, and 10 μl of the samples (Final concentration: 10 μM, 50 μM, 100 μM, 200 μM, 400 μM, and 1000 μM) were mixed were prepared, preincubated at 30° C. for 5 minutes, and then 8 μl of a substrate solution described in the catalog was added. Then, a reaction was started. After reacting for 10 minutes, 150 μl of a reaction stop liquid prepared in accordance with the preparation method described in the catalog of the Lipase kit S was added to stop the reaction. The resultant substance was subjected to a measurement of absorbancy at a wavelength of 415 nm. A reaction liquid to which only DMSO as the solvent of the sample was added was used as a positive control and one to which 10 μl of 100 mM citric acid buffer (pH 6.0) was added instead of the lipase solution was used as a negative control. From the relationship between the lipase inhibition rate calculated based on the data obtained therefrom and the concentration of each compound, the concentration IC50 at which the lipase activity is inhibited by 50% was calculated.

[4] = Physicochemical properties: solubility in solvents

Structure (SMILES) | IC50 [1] | IC50 [2] | IC50 [3] | Solubility: DMSO [4] | Solubility: Chloroform [4] | Solubility: Ethanol [4] | Solubility: Ethyl acetate [4] | Solubility: Methanol [4] | Solubility: Water [4]
CC(c1ccc(O)cc1)c1c(O)cc(/C=C/c2ccc(O)cc2)cc1O (single isomer, unassigned) [UHA9021] | 43.4 µM | 38.2 µM | 331 µM | Soluble | Soluble | Soluble | Soluble | Soluble | Poorly soluble
O=C(O)/C=C/c1ccc(O)cc1 [p-coumaric acid, reference compound] | > 100 µM | > 100 µM | > 1000 µM |  |  |  |  |  | 
COc1cc(/C=C/c2ccc(O)cc2)c(C(C)c2ccc(O)cc2)c(OC)c1 (stereo not shown) [UHA7032] | 31 µM | 37 µM |  | Soluble | Soluble | Soluble | Soluble | Soluble | Poorly soluble
Oc1cc(O)cc(/C=C/c2ccc(O)c(O)c2)c1 [Piceatannol, piceatannol, reference compound] |  | > 100 µM |  |  |  |  |  |  | 
COc1cc(C(C)c2c(O)cc(O)cc2/C=C/c2ccc(O)cc2)ccc1O (stereo not shown) [UHA1124] | 14.4 µM | 17.4 µM |  | Soluble | Soluble | Soluble | Soluble | Soluble | Poorly soluble
COc1cc(C(C)c2c(O)cc(/C=C/c3ccc(O)cc3)cc2O)ccc1O (stereo not shown) [UHA1123] | 31.5 µM | 50.3 µM |  | Soluble | Soluble | Soluble | Soluble | Soluble | Poorly soluble
COc1cc(/C=C/c2ccc(O)cc2)cc(OC)c1C(C)c1ccc(O)cc1 (stereo not shown) [UHA7033] | 35.5 µM | 41.7 µM |  | Soluble | Soluble | Soluble | Soluble | Soluble | Poorly soluble
Oc1ccc(C=Cc2cc(O)cc(O)c2)cc1 [Resveratrol, resveratrol, reference compound] | 76.5 µM | > 100 µM | > 1000 µM |  |  |  |  |  | 
O=C(O)/C=C/c1ccc(O)c(O)c1 [Coffeic acid, caffeic acid, reference compound] | > 100 µM | > 100 µM | > 1000 µM |  |  |  |  |  | 
COc1cc(/C=C/c2ccc(O)cc2)cc(OC)c1 [Pterostilbene, pterostilbene, reference compound] | 60.4 µM | 73.9 µM |  |  |  |  |  |  | 
COc1cc(C(C)c2c(O)cc(/C=C/c3ccc(O)cc3)c(C(C)c3ccc(O)c(OC)c3)c2O)ccc1O (stereo not shown) [UHA1125] | 13.4 µM | 26.1 µM |  | Soluble | Soluble | Soluble | Soluble | Soluble | Poorly soluble
COc1cc(/C=C/C(=O)O)ccc1O [Ferulic acid, ferulic acid, reference compound] | > 100 µM | > 100 µM |  |  |  |  |  |  | 
COc1cc(C(C)c2c(O)cc(/C=C/c3ccc(O)cc3)cc2O)cc(OC)c1O (stereo not shown) [UHA1028] | 14.1 µM | 17.6 µM | 510 µM | Soluble | Soluble | Soluble | Soluble | Soluble | Poorly soluble
COc1cc(/C=C/C(=O)O)cc(OC)c1O [Sinapic acid, sinapic acid, reference compound] | > 100 µM | > 100 µM | > 1000 µM |  |  |  |  |  | 
CC(c1ccc(O)cc1)c1c(O)cc(/C=C/c2ccc(O)c(O)c2)cc1O (single isomer, unassigned) [UHA7034] |  | 49.6 µM |  | Soluble | Soluble | Soluble | Soluble | Soluble | Poorly soluble
